From publication PMC6942202 (Bioorganic & medicinal chemistry letters, 2019)

Legend:
NgGCYH-IB [1] = biological target: T1, NgGCYH-IB (Neisseria gonorrhoeae, UniProt Q5F9K6); experiment: Inhibition of NgGCYH-IB enzyme activity; format: biochemical, N. gonorrhoeae; conditions: in words
HsGCYH-IA = biological target: T2, HsGCYH-IA (Homo sapiens, UniProt P30793); experiment: Steady-state kinetic analysis of HsGCYH-IA; format: biochemical, H. sapiens; conditions: read-out: KM of HsGCYH-IA for GTP; fluorescence assay, GTP as substrate
T2 sequence (P30793 43-250 limits assumed): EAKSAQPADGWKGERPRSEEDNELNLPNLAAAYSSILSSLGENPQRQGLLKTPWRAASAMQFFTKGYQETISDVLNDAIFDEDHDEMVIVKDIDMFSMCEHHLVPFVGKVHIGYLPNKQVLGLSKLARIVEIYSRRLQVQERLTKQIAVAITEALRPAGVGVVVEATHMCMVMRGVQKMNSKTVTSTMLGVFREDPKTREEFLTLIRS

NgGCYH-IB [2] = biological target: T1, NgGCYH-IB; conditions: read-out: KM of NgGCYH-IB for GTP; cited from earlier work

T1 sequence (Q5F9K6 whole entry): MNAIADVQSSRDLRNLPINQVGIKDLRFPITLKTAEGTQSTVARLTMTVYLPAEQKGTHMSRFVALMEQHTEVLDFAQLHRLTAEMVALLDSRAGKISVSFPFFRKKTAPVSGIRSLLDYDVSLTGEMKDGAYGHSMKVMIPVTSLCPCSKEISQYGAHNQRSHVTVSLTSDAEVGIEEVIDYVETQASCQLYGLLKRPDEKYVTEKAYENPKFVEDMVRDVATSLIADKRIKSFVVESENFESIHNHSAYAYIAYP

Compound | Selectivity between HsGCYH-IA and NgGCYH-IB from IC50 values (NgGCYH-IB [1]) | Km (HsGCYH-IA) [µM] | Km (NgGCYH-IB [2]) [µM]
Nc1nc(OCCO)c2[nH]c(=O)n([C@@H]3O[C@H](CO)[C@@H](O)[C@H]3O)c2n1 [G1] | modest selectivity for HsGCYH-IA | – | –
Nc1nc(OC[C@H](O)CO)c2[nH]c(=O)n([C@@H]3O[C@H](CO)[C@@H](O)[C@H]3O)c2n1 [G3] | three-fold more potent against NgGCYH-IB | – | –
Nc1nc2c(ncn2[C@@H]2O[C@H](COP(=O)(O)OP(=O)(O)OP(=O)(O)O)[C@@H](O)[C@H]2O)c(=O)[nH]1 [GTP] | – | 867 ± 57 | 9
